Columns and labels:
spleen lymphocytes = assay: Immunostimulatory effects on spleen lymphocytes, cytokines in supernatant by ELISA; assay type: cell-based, BALB/c or C57BL/6 mouse; settings: FIG. 59 and FIG. 60; compared with JQ1 plus SZU-101
Procedure: Effect Example 1: Detection of the Immunostimulatory Effects of the SZU-Series Small-Molecule Immune Agonists and Novel Immune Targeted Compounds of the Present Invention on Spleen Lymphocytes
1. Extraction of Spleen Lymphocytes
(1) BALB/c or C57BL/6 mouse spleens were collected, ground in a small dish containing Mouse Lymphocyte Separation Medium, and filtered through a filter membrane (with a pore size of […]) to obtain a cell suspension, which was treated by centrifugation to obtain lymphocytes. The isolated lymphocytes were placed in a 15 mL centrifuge tube, into which 10 mL of 1640 complete medium was added. The mixture was mixed uniformly and centrifuged at 250 g for 10 minutes. The supernatant was discarded.
(2) The cells were re-suspended with 1 mL of erythrocyte lysate. After 1 minute of lysis, 4 mL of 1640 complete medium was added for termination. The tube was centrifuged at 1,000 rpm for 5 minutes. The supernatant was discarded.
(3) The cells were re-suspended with 2 mL of 1640 complete medium, counted, and then seeded into 24-well plates at a density of 1×10^6 cells per well.
2. Preparation of the Samples
The spleen lymphocytes seeded into the 24-well plates were stimulated with different concentrations of the SZU-series small-molecule immune agonists and novel immune targeted compounds. The 24-well plate was transferred into an incubator. […]

[1] = system: CD274 (PD-L1) on B16 cells; assay: Inhibitory activity against CD274 (PD-L1) on B16 cells; assay type: cell-based; settings: FIG. 61

`COCCOc1nc(N)c2nc(O)n(Cc3ccc(CNC(=O)CCC(=O)NCCOCCOCCOCCNC(=O)C[C@@H]4N=C(c5ccc(Cl)cc5)c5c(sc(C)c5C)-n5c(C)nnc54)cc3)c2n1` [SZU-119] was tested, and the “activity of TLR7 agonist for stimulating immune cytokine” value (spleen lymphocytes) was “retains the activity of TLR7 agonist” and the “inhibitory activity against CD274 (PD-L1) on B16 cells” value [1] was “retains the inhibitory activity of JQ1”.
